# Assay results: paper PMC5785997, “2-Phenylquinazolinones as dual-activity tankyrase-kinase inhibitors” (Scientific Reports, 2018)
# pIC50: −log10 of the molar value.
# Experiments:
# TNKS2 = TNKS2 (Homo sapiens, UniProt Q9H2K2); test: NAD+ quantification activity assay, TNKS2; assay type: biochemical; details: TNKS2 IC50, NAD+ 500 nM
# Description: The activity assay used to measure the potency of the compounds against TNKS2 is based on the quantification of NAD^+[38]. The reactions were carried out in 96-well plate (Greiner bio-one, U-shaped) and the conditions were the same as reported earlier (Table S5)[24].
# The compounds were stored in 100% DMSO at −20 °C. All the compounds were diluted in the TNKS2 assay buffer (50 mM Bis-Tris Propane, 0.5 mM TCEP, 0.01% Triton-100x). Control reactions were used to exclude the effect of compound fluorescence and quenching from the calculations. […] The pIC50 values were calculated and fitted with nonlinear regression using 4-parameters with GraphPad Prism (version 5.0 for windows).
# (§1) Protein (nM) NAD+ (nM) Incubation Buffer
# (§2) Kinase [ATP] Substrate Incubation Reaction buffer
# ARTD5/TNKS1 = ARTD5/TNKS1 (Homo sapiens, UniProt O95271); test: NAD+ quantification activity assay, TNKS1; assay type: biochemical; details: NAD+ 500 nM
# Description: as §1, §2
# [1] = system: Wnt/β-catenin signaling (TCF/LEF Reporter HEK293 Cell Line); test: Wnt signaling TCF/LEF reporter assay in HEK293 cells; assay type: cell-based, human; details: Homo sapiens; for inhibition at 2 µM: HEK293, 2 µM compound, Wnt-reporter cell assay, read-out: Wnt (Inh.%, 2 µM)
# Description: The Wnt assay was performed using a procedure modified from the BPS Bioscience protocol. Details are given in the Supplementary Methods. […]
# The Wnt Signaling Pathway TCF/LEF Reporter HEK293 Cell Line (BPS Bioscience, catalog […]
# Reporter HEK293 cells were grown at 37 °C with 5% CO2 using Dulbecco's Modified Eagle's Medium (DMEM, Sigma), supplemented with 10% of fetal bovine serum (Lonza), 1% non-essential amino acid (Sigma), 1X of penicillin and streptomycin (Sigma), and 400 µg/ml of Geneticin (Roche). Wnt-3a and L cells (ATCC) were cultured in Dulbecco’s modified Eagle’s medium supplemented with 10% fetal bovine serum, penicillin and streptomycin at 37 °C in a 5%
# CO2. Wnt3a and control conditioned medium preparation has been described previously1. The Wnt assay was performed using a procedure modified from the BPS Bioscience protocol. 30,000 HEK293 cells/well in 40 µl of serum-free DMEM were plated on 96-well plate (white wells, clear […]
# bottom, PerkinElmer). 10 µl of 50 mM LiCl in serum-free DMEM with 5x concentration of DMSO or tankyrase inhibitors was added. After 16 hours of incubation, 25 µl of Wnt3a or control conditioned medium supplemented with DMSO or tankyrase inhibitors was added on cells and cells were incubated for additional 24 hours. After the second incubation, the 96-well plates were balanced in room temperature for 30 minutes. Wnt3a induced luciferase activity was determined using ONE-Glo Luciferase Assay System (Promega) according to manufacturer’s protocol. […]
# Difference Fourier method deriving the starting phases from 3U9H. The refinement of the structures was done with REFMAC5.5,6 Final manual building, analysis and visualization of the structures were made with Coot7 and PyMOL (www.pymol.org). All chemical structures were drawn with Marvin (Marvin 5.7.0 2011, ChemAxon, http://www.chemaxon.com). The docking studies were performed using GOLD software.8
# [2] = set-up: method as in PMID 24130191; details: previous study; read-out: IC50 in cell-based assay; cited from earlier work
# ARTD1/PARP1 = ARTD1/PARP1 (Homo sapiens, UniProt P09874); test: ARTD profiling, ARTD1
# ARTD2/PARP2 = ARTD2/PARP2 (Homo sapiens, UniProt Q9UGN5); test: ARTD profiling, ARTD2
# ARTD3/PARP3 = target: T1, ARTD3/PARP3 (Homo sapiens, UniProt Q9Y6F1); test: ARTD profiling, ARTD3; assay type: biochemical; details: NAD+ 500 nM
# T1 sequence (Q9Y6F1 1-533): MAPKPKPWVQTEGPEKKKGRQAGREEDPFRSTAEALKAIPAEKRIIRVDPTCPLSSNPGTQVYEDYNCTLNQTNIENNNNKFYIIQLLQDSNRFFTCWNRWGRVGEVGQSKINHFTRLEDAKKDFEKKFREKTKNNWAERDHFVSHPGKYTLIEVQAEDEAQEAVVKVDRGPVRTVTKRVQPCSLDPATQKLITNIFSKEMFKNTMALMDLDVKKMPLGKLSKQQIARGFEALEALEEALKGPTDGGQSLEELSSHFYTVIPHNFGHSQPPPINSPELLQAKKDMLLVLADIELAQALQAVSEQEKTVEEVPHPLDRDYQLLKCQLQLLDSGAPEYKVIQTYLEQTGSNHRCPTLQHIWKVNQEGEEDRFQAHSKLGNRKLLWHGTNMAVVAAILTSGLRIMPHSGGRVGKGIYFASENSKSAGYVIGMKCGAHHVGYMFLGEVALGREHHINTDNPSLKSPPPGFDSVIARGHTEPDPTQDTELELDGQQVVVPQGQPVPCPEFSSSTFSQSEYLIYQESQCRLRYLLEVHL
# Description: as §1, §2
# ARTD4/PARP4 = target: T2, ARTD4/PARP4 (Homo sapiens, UniProt Q9UKK3); test: ARTD profiling, ARTD4
# T2 sequence (Q9UKK3 369-573 limits assumed): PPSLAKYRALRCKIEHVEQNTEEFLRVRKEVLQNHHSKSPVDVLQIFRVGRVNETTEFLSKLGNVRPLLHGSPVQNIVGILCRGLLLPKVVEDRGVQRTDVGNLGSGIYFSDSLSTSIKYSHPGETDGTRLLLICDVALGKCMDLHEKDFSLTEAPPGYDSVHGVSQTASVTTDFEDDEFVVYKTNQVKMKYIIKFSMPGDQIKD
# ARTD7/PARP15 = target: T3, ARTD7/PARP15 (Homo sapiens, UniProt Q460N3); test: ARTD profiling, ARTD7
# T3 sequence (Q460N3 482-678 limits assumed): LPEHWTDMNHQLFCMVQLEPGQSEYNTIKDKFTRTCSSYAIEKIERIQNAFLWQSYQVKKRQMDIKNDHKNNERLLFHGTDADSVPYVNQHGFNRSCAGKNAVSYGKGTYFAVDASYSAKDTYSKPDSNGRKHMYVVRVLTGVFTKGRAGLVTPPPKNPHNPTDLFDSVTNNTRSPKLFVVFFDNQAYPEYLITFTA
# ARTD8/PARP14 = ARTD8/PARP14 (Homo sapiens, UniProt Q460N5); test: ARTD profiling, ARTD8
# ARTD10/PARP10 = target: T4, ARTD10/PARP10 (Homo sapiens, UniProt Q53GL7); test: ARTD profiling, ARTD10
# T4 sequence (Q53GL7 806-1025 limits assumed): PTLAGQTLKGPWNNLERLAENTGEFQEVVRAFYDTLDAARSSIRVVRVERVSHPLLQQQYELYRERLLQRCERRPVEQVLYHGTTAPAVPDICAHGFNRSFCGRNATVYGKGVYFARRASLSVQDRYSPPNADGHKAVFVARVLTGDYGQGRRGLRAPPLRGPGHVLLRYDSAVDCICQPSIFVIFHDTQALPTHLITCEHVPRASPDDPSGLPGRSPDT
# ARTD12/PARP12 = target: T5, ARTD12/PARP12 (Homo sapiens, UniProt Q9H0J9); test: ARTD profiling, ARTD12
# T5 sequence (Q9H0J9 484-698 limits assumed): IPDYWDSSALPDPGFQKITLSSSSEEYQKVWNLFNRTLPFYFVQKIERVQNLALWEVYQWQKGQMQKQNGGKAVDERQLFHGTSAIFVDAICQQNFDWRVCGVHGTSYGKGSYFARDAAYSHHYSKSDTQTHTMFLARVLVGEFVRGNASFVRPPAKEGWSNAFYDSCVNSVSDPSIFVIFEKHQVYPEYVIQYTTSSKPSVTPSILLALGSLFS
# ARTD15/PARP16 = target: T6, ARTD15/PARP16 (Homo sapiens, UniProt Q8N5Y8); test: ARTD profiling, ARTD15
# T6 sequence (Q8N5Y8 1-322): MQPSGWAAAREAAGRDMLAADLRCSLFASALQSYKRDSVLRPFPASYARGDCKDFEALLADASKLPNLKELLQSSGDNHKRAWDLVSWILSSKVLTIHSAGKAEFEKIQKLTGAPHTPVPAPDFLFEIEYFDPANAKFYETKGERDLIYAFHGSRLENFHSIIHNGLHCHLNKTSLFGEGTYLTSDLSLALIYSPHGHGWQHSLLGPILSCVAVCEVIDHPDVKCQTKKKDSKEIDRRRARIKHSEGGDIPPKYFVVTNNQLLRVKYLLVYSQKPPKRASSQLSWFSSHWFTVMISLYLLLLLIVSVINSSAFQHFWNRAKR
# ARTD5/TNKS1, sequence (O95271 1112-1317): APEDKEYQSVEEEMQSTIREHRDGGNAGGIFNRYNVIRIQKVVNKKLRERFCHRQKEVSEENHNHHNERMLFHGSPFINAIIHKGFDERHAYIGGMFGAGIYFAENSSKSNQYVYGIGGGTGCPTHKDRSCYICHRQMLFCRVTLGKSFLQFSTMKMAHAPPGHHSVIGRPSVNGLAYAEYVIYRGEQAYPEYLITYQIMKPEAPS
# ARTD2/PARP2, sequence (Q9UGN5 whole entry): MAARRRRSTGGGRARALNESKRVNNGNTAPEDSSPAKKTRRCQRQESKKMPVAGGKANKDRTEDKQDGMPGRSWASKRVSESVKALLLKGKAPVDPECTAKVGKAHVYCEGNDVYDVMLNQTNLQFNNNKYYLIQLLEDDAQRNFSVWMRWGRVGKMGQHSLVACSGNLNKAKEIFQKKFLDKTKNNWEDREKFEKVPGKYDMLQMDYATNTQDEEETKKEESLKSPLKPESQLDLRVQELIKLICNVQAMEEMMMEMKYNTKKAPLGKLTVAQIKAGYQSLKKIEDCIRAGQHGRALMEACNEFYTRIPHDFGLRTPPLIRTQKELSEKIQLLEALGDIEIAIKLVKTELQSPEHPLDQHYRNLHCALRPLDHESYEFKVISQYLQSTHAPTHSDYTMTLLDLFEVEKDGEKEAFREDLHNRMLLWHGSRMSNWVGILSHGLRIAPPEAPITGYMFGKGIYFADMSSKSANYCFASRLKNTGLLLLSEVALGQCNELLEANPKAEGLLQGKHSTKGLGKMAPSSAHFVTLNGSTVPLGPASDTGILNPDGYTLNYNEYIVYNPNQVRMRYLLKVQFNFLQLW
# TNKS2, sequence (Q9H2K2 959-1164): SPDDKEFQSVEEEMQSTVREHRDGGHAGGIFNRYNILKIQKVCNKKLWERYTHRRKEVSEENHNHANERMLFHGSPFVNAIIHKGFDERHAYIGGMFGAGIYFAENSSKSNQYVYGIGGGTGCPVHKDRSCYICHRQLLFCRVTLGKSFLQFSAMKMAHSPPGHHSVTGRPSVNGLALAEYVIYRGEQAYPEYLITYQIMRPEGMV
# ARTD1/PARP1, sequence (P09874 whole entry): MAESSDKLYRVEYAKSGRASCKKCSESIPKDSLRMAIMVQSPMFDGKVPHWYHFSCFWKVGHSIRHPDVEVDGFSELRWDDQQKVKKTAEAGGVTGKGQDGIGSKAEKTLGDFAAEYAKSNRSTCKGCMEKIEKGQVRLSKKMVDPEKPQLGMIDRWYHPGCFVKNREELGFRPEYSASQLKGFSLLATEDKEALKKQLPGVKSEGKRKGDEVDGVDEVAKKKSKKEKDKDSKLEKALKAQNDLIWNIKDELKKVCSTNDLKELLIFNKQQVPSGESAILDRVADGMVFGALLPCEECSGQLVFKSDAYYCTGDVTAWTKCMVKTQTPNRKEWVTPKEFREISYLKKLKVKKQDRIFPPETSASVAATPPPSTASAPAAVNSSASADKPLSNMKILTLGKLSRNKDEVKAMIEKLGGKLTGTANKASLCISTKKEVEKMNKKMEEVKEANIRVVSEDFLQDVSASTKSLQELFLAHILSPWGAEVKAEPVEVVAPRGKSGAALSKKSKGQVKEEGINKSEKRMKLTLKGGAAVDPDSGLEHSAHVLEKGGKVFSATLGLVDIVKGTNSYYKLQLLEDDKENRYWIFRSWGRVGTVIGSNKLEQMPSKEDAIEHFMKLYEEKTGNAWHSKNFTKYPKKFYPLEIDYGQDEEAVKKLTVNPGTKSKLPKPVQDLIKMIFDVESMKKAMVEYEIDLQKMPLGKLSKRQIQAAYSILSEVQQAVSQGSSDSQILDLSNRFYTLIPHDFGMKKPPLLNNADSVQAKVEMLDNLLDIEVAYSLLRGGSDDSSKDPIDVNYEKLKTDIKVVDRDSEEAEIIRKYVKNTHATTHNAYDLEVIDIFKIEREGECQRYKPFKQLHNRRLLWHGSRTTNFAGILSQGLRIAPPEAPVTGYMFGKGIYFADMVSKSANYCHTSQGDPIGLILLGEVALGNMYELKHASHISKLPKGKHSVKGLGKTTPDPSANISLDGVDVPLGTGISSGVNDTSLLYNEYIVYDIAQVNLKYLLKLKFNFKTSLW
# ARTD8/PARP14, sequence (Q460N5 whole entry): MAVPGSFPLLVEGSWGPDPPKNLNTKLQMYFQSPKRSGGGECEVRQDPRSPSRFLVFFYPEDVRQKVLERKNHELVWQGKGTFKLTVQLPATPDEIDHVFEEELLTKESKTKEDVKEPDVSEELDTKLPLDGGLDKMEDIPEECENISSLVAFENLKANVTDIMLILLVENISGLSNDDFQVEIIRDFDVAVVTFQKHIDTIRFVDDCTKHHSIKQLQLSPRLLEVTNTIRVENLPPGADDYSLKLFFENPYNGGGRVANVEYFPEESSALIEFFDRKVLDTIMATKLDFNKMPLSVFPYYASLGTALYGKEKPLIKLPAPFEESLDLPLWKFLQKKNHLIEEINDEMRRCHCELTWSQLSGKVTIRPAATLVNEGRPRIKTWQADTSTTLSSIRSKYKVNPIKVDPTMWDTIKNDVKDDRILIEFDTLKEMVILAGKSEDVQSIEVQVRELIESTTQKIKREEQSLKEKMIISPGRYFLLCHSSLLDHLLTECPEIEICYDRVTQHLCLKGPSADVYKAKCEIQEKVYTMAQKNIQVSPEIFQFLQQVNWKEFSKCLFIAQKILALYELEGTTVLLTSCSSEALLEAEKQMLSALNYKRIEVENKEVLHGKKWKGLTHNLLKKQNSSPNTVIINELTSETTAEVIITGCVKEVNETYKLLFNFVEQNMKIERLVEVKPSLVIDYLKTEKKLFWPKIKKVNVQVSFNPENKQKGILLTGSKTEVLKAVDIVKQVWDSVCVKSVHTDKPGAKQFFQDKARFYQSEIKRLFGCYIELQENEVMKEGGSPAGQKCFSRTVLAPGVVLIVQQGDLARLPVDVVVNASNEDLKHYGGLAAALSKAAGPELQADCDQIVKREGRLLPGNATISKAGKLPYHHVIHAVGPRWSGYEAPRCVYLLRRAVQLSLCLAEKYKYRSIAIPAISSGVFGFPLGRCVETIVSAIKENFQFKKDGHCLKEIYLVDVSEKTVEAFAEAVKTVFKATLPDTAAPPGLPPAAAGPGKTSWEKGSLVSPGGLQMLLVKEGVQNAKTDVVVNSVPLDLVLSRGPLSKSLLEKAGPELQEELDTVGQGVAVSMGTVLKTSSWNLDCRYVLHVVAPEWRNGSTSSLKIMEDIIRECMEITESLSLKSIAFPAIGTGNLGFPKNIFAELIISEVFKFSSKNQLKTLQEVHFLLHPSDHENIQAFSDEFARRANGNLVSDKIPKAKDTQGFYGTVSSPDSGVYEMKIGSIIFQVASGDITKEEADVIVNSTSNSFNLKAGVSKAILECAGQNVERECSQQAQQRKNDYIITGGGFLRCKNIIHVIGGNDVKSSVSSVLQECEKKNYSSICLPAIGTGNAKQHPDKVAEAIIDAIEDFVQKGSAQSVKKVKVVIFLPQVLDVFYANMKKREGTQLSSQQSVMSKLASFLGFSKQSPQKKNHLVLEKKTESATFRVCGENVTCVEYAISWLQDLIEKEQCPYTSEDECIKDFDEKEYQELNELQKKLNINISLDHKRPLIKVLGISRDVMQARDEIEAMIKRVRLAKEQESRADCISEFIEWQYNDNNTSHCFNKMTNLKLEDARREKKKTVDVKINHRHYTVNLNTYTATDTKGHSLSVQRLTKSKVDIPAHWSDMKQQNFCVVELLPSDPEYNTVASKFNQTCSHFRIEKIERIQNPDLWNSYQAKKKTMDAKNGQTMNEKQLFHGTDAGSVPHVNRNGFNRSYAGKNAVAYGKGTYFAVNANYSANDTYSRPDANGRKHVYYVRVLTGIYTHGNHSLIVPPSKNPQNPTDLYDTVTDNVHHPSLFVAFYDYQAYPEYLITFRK
SMILES,pIC50 (TNKS2),pIC50 (ARTD5/TNKS1),inhibition at 2 µM [1],pIC50 [2],pIC50 (ARTD1/PARP1),pIC50 (ARTD2/PARP2),pIC50 (ARTD3/PARP3),"inhibition at 1 µM ([1]; HEK293, 1 µM compound, TCF/LEF reporter HEK293)",pIC50 (ARTD4/PARP4),pIC50 (ARTD7/PARP15),pIC50 (ARTD8/PARP14),pIC50 (ARTD10/PARP10),pIC50 (ARTD12/PARP12),pIC50 (ARTD15/PARP16)
CC1(c2ccc(-c3nc4ccccc4c(=O)[nH]3)cc2)NC(=O)NC1=O (centres unmarked) [Compound 2],8.48,8.23,68%,~6.00,6.43,6.47,–,–,–,–,–,–,–,–
CC1(c2ccc(-c3nc4ccccc4c(=O)[nH]3)cc2)CNC(=O)N1 (centres unmarked) [Compound 9],8.00,8.00,72%,–,6.00,6.06,–,–,–,–,–,–,–,–
CN(CCO)c1ccc(-c2nc3ccccc3c(=O)[nH]2)cc1 [Compound 33],7.80,7.11,–,–,5.77,6.07,5.42,20%,5.70,< 5.00,5.49,5.51,< 5.00,< 5.00
